Measured values reported in US10472341B2, “Bicyclic tetrahydrothiazepine derivatives useful for the treatment of neoplastic and/or infectious diseases” (APEIRON BIOLOGICS AG, priority 2015, dated 2019).
Where two headings read alike, the source gives them in different places.

Legend:
[1] = test system: aCD3/aCD28-stimulated human PBMCs; assay: Cytokine production in aCD3/aCD28 stimulated human PBMCs; type: cell-based; conditions: PBMC, 18 h
Protocol: In order to determine the immune modulatory effect of compounds of compounds of the present invention in human PBMCs, compounds were assessed in the following assay set-up:
Buffy coats were obtained from a local hospital, diluted 3 fold with PBS and layered onto an isotonic Ficoll separating solution d=1.077 g/mL in 50 mL centrifuge tubes. The tubes were centrifuged at 914 g for 25 min at room temperature with the brakes off. The PBMC layer was removed and washed twice with ice-cold PBS. Erythrocytes were lysed by addition of ddH2O and cells were resuspended in X-Vivo15 (Lonza).
1e6 cells/mL were stimulated with soluble anti CD3/CD28 antibodies (1 μg/mL both, clones OKT3 and 28.2) in the presence of described compounds. Cells were incubated for 18 h at 37° C., 5% CO2. Assay plates were centrifuged at 400 g for 5 min and supernatants harvested. Cytokine concentration in tissue culture supernatants were determined with MSD or HTRF kits (MSD and Cisbio), according to manufacturer's instructions.

[2] = test system: aCD3/aCD28-stimulated human CD4+-T-cells; assay: IL-2 production and activation markers in aCD3/aCD28 stimulated isolated human CD4+-T-cells; type: cell-based; conditions: IL-2 production at 3 μM compound
Protocol: • Buffy coat content was transferred to sterile plastic bottle and filled up to 480 ml with PBS, and distributed equally to 16×50 ml tubes (30 ml/tube) • Underlayed with ˜11 ml Lymphoprep and centrifuged 20 min (2200 rpm) • The interphase containing lymphocytes was taken off with transfer pipette, cells were washed twice with PBS and pooled to one tube to determine cell count (Coulter Diff ACT) Isolation of Immune Cell Subfractions from PBMCs by MACS • PBMCs were resuspended in MACS buffer (80 μl MACS-buffer/10^7 cells) and cells were isolated with Auto-MACS device using respective kits following manufacturer's recommendations TCR Stimulation and Measurement of T Cell Activation
Isolated T cells were plated in Xvivo medium at 1.5*10 ^5 cells per in 96 well culture plates and TCR-stimulated with anti-CD3/28 mAbs in the presence of compound as indicated. Cytokine production was determined at 24 h or 48 h following TCR stimulation in cell culture supernatants using commercially available ELISA kits (BD and eBioscience) as recommended by the manufacturer. T cell proliferation and CD25 expression (CD25-PC5 reagent purchased from Beckman Coulter) was determined by flow cytometry (Beckman-Coulter FC500) and analysed with Kaluza Software. For measurement of CD69 expression, isolated CD4 and CD8 T cells were plated in Xvivo medium at […] per in 96 well culture plates and TCR-stimulated with anti-CD3/28 mAbs in the presence of compound. CD69 expression was determined at 24 h following TCR stimulation by flow cytometry (CD4eF450, CD8APCeF780 and CD69-PC7 reagent purchased from eBioscience) and analysed with Kaluza Software.
Buffy coats were obtained from Austrian Red Cross, diluted 3 fold with PBS and layered onto an isotonic Ficoll separating solution d=1.077 g/m in 50 ml centrifuge tubes. The tubes were centrifuged at 914 g for 25 min at room temperature with the brakes off. The PBMC layer was removed and washed twice with ice-cold PBS. CD4 T cells were isolated using CD4 microbeads (Milteny) and the AutoMACS device following manufacturer's instructions.
Compound examples of the present invention were classified according to the following activity criteria and are listed in Table 4a: • Activity Class A: IL-2 production at 3 μM compound concentration >10 ng/mL • Activity Class B: IL-2 production at 3 μM compound concentration between 2-10 ng/mL • Activity Class C: IL-2 production at 3 μM compound concentration between 2-fold increase as compared to mean IL-2 production of stimulated cells in the absence of compounds and <2 ng/mL

[3] = enhancement of IFN-γ production, read-out: Activity Class IFN-γ
[4] = enhancement of IL-2 production, read-out: Activity Class IL-2

Row | Compound | EC50 [1, 3] | EC50 [1, 4] | Activity Class CD4+ [2]
1 | Cl.N[C@H]1CS(=O)(=O)c2cc(F)c(C(=O)NCC(F)(F)F)cc2N(Cc2ccc(Cl)cc2)C1=O [Example 92, (3R)-3-amino-5-[(4-chlorophenyl)methyl]-8-fluoro-1,1,4-trioxo-N-(2,2,2-trifluoro-ethyl)-2,3,4,5-tetrahydro-1λ^6,5-benzothiazepine-7-carboxamide hydrochloride] | 1580 to 5010 nM | 1580 to 5010 nM | B (IL-2 production at 3 μM compound concentration between 2-10 ng/mL)
2 | CC(C)(C)NC(=O)c1cc2c(cc1F)S(=O)(=O)C[C@H](N)C(=O)N2Cc1ccc(Cl)cc1.Cl [Example 96, (3R)-3-amino-N-tert-butyl-5-[(4-chlorophenyl)methyl]-8-fluoro-1,1,4-trioxo-2,3,4,5-tetrahydro-1λ^6,5-benzothiazepine-7-carboxamide hydrochloride] | < 1580 nM | < 1580 nM | A (IL-2 production at 3 μM compound concentration >10 ng/mL)
3 | C[C@@H]1[C@H](N)C(=O)N(Cc2ccc(Cl)cc2)c2cc(C(=O)NCCCC(F)(F)F)ccc2S1(=O)=O.Cl [Example 111, (2R,3R)-3-amino-5-[(4-chlorophenyl)methyl]-2-methyl-1,1,4-trioxo-N-(4,4,4-trifluorobutyl)-2,3,4,5-tetrahydro-1λ^6,5-benzothiazepine-7-carboxamide hydrochloride] | 1580 to 5010 nM | 1580 to 5010 nM | B (IL-2 production at 3 μM compound concentration between 2-10 ng/mL)
4 | Cl.N[C@H]1CSc2ccc(C(=O)NCC3CCOCC3)cc2N(Cc2ccc(OC(F)(F)F)cc2)C1=O [Example 30, (3R)-3-amino-N-(oxan-4-ylmethyl)-4-oxo-5-{[4-(trifluoromethoxy)phenyl]methyl}-2,3,4,5-tetrahydro-1,5-benzothiazepine-7-carboxamide hydrochloride] | > 5010 nM | 1580 to 5010 nM | B (IL-2 production at 3 μM compound concentration between 2-10 ng/mL)
5 | COc1ccc(CNC(=O)c2cc3c(cc2F)SC[C@H](N)C(=O)N3Cc2ccc(Cl)cc2)cc1.Cl [Example 43, (3R)-3-amino-5-[(4-chlorophenyl)methyl]-8-fluoro-N-[(4-methoxyphenyl)methyl]-4-oxo-2,3,4,5-tetrahydro-1,5-benzothiazepine-7-carboxamide hydrochloride] | < 1580 nM | 1580 to 5010 nM | C (IL-2 production at 3 μM compound concentration between 2-fold increase as compared to mean IL-2 production of stimulated cells in the absence of compounds and <2 ng/mL)
6 | CCCCNC(=O)c1ccc2c(c1)N(Cc1ccc(OC(F)(F)F)cc1)C(=O)[C@@H](N)CS2.Cl [Example 3, (3R)-3-amino-N-butyl-4-oxo-5-{[4-(trifluoromethoxy)phenyl]methyl}-2,3,4,5-tetrahydro-1,5-benzothiazepine-7-carboxamide hydrochloride] | 1580 to 5010 nM | 1580 to 5010 nM | B (IL-2 production at 3 μM compound concentration between 2-10 ng/mL)
7 | COc1ccc([C@H](C)NC(=O)c2ccc3c(c2)N(Cc2ccc(Cl)cc2)C(=O)[C@@H](N)CS3)cc1 [Example 35, (3R)-3-amino-5-[(4-chlorophenyl)methyl]-N-[(1S)-1-(4-methoxyphenyl)ethyl]-4-oxo-2,3,4,5-tetrahydro-1,5-benzothiazepine-7-carboxamide] | > 5010 nM | > 5010 nM | C (IL-2 production at 3 μM compound concentration between 2-fold increase as compared to mean IL-2 production of stimulated cells in the absence of compounds and <2 ng/mL)
8 | C[C@H]1Sc2ccc(C(=O)NCCCC(F)(F)F)cc2N(Cc2ccc(Cl)cc2)C(=O)[C@H]1N.Cl [Example 51, (2R,3R)-3-amino-5-[(4-chlorophenyl)methyl]-2-methyl-4-oxo-N-(4,4,4-trifluorobutyl)-2,3,4,5-tetrahydro-1,5-benzothiazepine-7-carboxamide hydrochloride] | < 1580 nM | 1580 to 5010 nM | C (IL-2 production at 3 μM compound concentration between 2-fold increase as compared to mean IL-2 production of stimulated cells in the absence of compounds and <2 ng/mL)
9 | Cl.N[C@H]1CSc2cc(F)c(C(=O)NCC3CCOCC3)cc2N(Cc2ccc(Cl)cc2F)C1=O [Example 55, (3R)-3-amino-5-[(4-chloro-2-fluorophenyl)methyl]-8-fluoro-N-(oxan-4-ylmethyl)-4-oxo-2,3,4,5-tetrahydro-1,5-benzothiazepine-7-carboxamide hydrochloride] | 1580 to 5010 nM | 1580 to 5010 nM | B (IL-2 production at 3 μM compound concentration between 2-10 ng/mL)
10 | COc1ccc(CNC(=O)c2cc3c(cc2F)SC[C@H](NCCCCCNC(=O)OC(C)(C)C)C(=O)N3Cc2ccc(Cl)cc2)cc1 [Example 115, tert-butyl N-(5-{[(3R)-5-[(4-chlorophenyl)methyl]-8-fluoro-7-{[(4-methoxyphenyl)methyl]carbamoyl}-4-oxo-2,3,4,5-tetrahydro-1,5-benzothiazepin-3-yl]amino}pentyl)carbamate] | – | – | C (IL-2 production at 3 μM compound concentration between 2-fold increase as compared to mean IL-2 production of stimulated cells in the absence of compounds and <2 ng/mL)
11 | Cl.N[C@H]1CS(=O)(=O)c2cc(F)c(C(=O)N[C@@H]3CC3(F)F)cc2N(Cc2ccc(Cl)cc2)C1=O (single isomer, unassigned) [Example 106] | – | – | B (IL-2 production at 3 μM compound concentration between 2-10 ng/mL)
12 | N[C@H]1CSc2ccc(C(=O)NCC3CCOCC3)cc2N(Cc2ccc(F)cc2)C1=O [Example 45, (3R)-3-amino-5-[(4-fluorophenyl)methyl]-N-(oxan-4-ylmethyl)-4-oxo-2,3,4,5-tetrahydro-1,5-benzothiazepine-7-carboxamide] | – | – | C (IL-2 production at 3 μM compound concentration between 2-fold increase as compared to mean IL-2 production of stimulated cells in the absence of compounds and <2 ng/mL)
13 | Cl.N[C@H]1CSc2ccc(C(=O)NCc3ccc(F)cc3)cc2N(Cc2ccc(-c3csnn3)cc2)C1=O [Example 32, (3R)-3-amino-N-[(4-fluorophenyl)methyl]-4-oxo-5-{[4-(1,2,3-thiadiazol-4-yl)phenyl]-methyl}-2,3,4,5-tetrahydro-1,5-benzothiazepine-7-carboxamide hydrochloride] | – | – | C (IL-2 production at 3 μM compound concentration between 2-fold increase as compared to mean IL-2 production of stimulated cells in the absence of compounds and <2 ng/mL)
14 | Cl.N[C@H]1CSc2cc(F)c(C(=O)NCc3ccccc3)cc2N(Cc2ccc(OC(F)(F)F)cc2)C1=O [Example 16, (3R)-3-amino-N-benzyl-8-fluoro-4-oxo-5-{[4-(trifluoromethoxy)phenyl]methyl}-2,3,4,5-tetrahydro-1,5-benzothiazepine-7-carboxamide hydrochloride] | – | – | B (IL-2 production at 3 μM compound concentration between 2-10 ng/mL)
15 | CC(C)CONC(=O)c1ccc2c(c1)N(Cc1ccc(Cl)cc1)C(=O)[C@@H](N)CS2(=O)=O.Cl [Example 81, (3R)-3-amino-5-[(4-chlorophenyl)methyl]-N-(2-methylpropoxy)-1,1,4-trioxo-2,3,4,5-tetrahydro-1λ^6,5-benzothiazepine-7-carboxamide hydrochloride] | – | – | C (IL-2 production at 3 μM compound concentration between 2-fold increase as compared to mean IL-2 production of stimulated cells in the absence of compounds and <2 ng/mL)
